The record followed here is publication PMC10793205, “Differential transmetallation of complexes of the anti-cancer thiosemicarbazone, Dp4e4mT: effects on anti-proliferative efficacy, redox activity, oxy-myoglobin and oxy-hemoglobin oxidation” (Chemical Science, 2023).

“Also recorded” adds a separate entry of the source.

Series [1] is described as follows: Cyclic voltammetry (redox potentials). Type of series: physicochemical. To be noted: 1 mM in MeCN/H2O 7 : 3 (v/v) + 0.1 M Et4NClO4, sweep rate 100 mV s^−1. The source says: The redox potentials of Fe(III)- and Cu(II)-thiosemicarbazone complexes have been extensively studied and are important for understanding intracellular redox activity and ROS generation.[23,27,28,42] Considering this, the electrochemical properties of [Fe(Dp44mT)2]^+, [Fe(DpC)2]^+, [Fe(Dp4e4mT)2]^+, [Co(Dp4e4mT)2]^+, [Ni(Dp4e4mT)2], [Cu(Dp4e4mT)Cl], [Ga(Dp4e4mT)2]^+, and [Pd(Dp4e4mT)Cl] were investigated with cyclic voltammetry in MeCN : H2O (70 : 30 v/v; Fig. 4A and B). This solvent system was implemented to provide sufficient solubility and because it has been used by our laboratories previously to measure potentials of thiosemicarbazone complexes enabling effective comparison.[28,45,57–59]
Fig. 4 Cyclic voltammograms of: (A) [Fe(Dp44mT)2]^+, [Fe(DpC)2]^+, and [Fe(Dp4e4mT)2]^+. (B) [Co(Dp4e4mT)2]^+, [Ni(Dp4e4mT)2], [Cu(Dp4e4mT)Cl], [Ga(Dp4e4mT)2]^+, and [Pd(Dp4e4mT)Cl] (1 mM in MeCN/H2O 7 : 3 (v/v) + 0.1 M Et4NClO4) at a sweep rate of 100 mV s^−1. The voltammograms were recorded using a glassy carbon working electrode versus a […] (NHE). […]
Cyclic voltammograms were acquired for the Fe(III), Co(III), Ni(II), Cu(II), Ga(III), and Pd(II) complexes of Dp4e4mT utilizing a BAS100B/W potentiostat, equipped with an aqueous Ag/AgCl reference electrode, a glassy carbon working electrode, and a Pt wire auxiliary […]
electrode. […]

Another series deals with T1, oxy-Mb (Homo sapiens, UniProt P02144).
T1 sequence (P02144 1-154): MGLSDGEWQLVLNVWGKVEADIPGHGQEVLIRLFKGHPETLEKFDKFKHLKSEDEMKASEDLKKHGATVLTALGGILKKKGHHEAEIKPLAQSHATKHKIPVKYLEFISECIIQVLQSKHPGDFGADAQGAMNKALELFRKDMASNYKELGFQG
Briefly: Oxidation of purified oxy-Mb to met-Mb (UV-vis). The settings on record: 10 μM agent, oxy-Mb 40 μM, 3 h incubation, 20 °C. The format is biochemical. The source says: As such, it was important to examine the effect of the Dp4e4mT complexes on oxy-Hb and oxy-Mb oxidation (Fig. 6 and 7). Comparisons were made to three controls, namely DFO, Dp44mT, and DpC, as well as their Fe(III) complexes. […] In contrast, the Fe(III) complexes of Dp44mT and DpC were positive controls, as they induce oxidation of oxy-Mb.[28,39,42]
Fig. 6 (A and B) Investigation of the effects of Dp4e4mT and its Fe(III), Co(III), Ni(II), Cu(II), Zn(II), Ga(III), and Pd(II) complexes versus the positive controls DFO, Dp44mT, DpC and their Fe(III) complexes (10 μM) on met-Mb generation (% zero time) after an incubation of 1–3 h/20 °C with purified oxy-Mb (40 μM). Results are mean ± SD (3 experiments).
Spectroscopic Examination of Met-Mb and Met-Hb Formation from Oxy-Mb and Oxy- […]
Oxy-Mb and oxy-Hb solutions were prepared following established protocols.8, 17 In brief, solutions of reduced Mb and Hb in PBS (pH 7.2) were prepared by adding 1.2 mL of Na2S2O4 (12 mM) to 38 mL of met-Mb and met-Hb solution (40 μM). 17 Subsequently, oxy-Mb and oxy-Hb were generated by gently passing 150 mL of oxygen (from an air-filled syringe) through the solution containing reduced Mb and Hb, effectively eliminating any residual Na2S2O4. Following this, the oxy-Mb and oxy-Hb solutions were passed through a PD-10 column prepacked with 8.3 mL of Sephadex G-25 and equilibrated with PBS (pH 7.2). 17 In experiments examining the activity of the agents, all complexes were dissolved in 1,2-propanediol, then diluted to 10 µM in PBS (pH 7.2). The experiments were conducted over incubations of 0 to 3 h with the agents. UV-Vis spectra covering the range of 300 to 700 nm were recorded at a temperature of 20°C using a Shimadzu UV−Vis spectrophotometer (UV-1800; Shimadzu, Kyoto, Japan). Concentrations of met-Mb and met-Hb, as well as reduced-Mb and reduced-Hb, were determined at 409 nm and 435 nm, respectively. Concentrations of oxy-Mb and oxy-Hb were determined at 544 nm and 582 nm, respectively. 17

Series [2] has as its target T2, oxy-Hb in intact human erythrocytes (Homo sapiens, UniProt P68871+P69905).
T2 construct: Physiologically, oxy-Hb is found in erythrocytes; endogenous in cells; host or cells: intact human erythrocytes from fresh blood of healthy donors
Briefly: Oxidation of oxy-Hb in intact human erythrocytes. The settings on record: 10 μM, 3 h/37 °C. Type of series: cell-based. The procedure: Fig. 7 (A and B) Investigation of the effects of Dp4e4mT and its Fe(III), Co(III), Ni(II), Cu(II), Zn(II), Ga(III), and Pd(II) complexes versus DFO, Dp44mT, DpC and their Fe(III) complexes (10 μM) on met-Hb generation (% zero time) after an incubation of 1–3 h/20 °C with purified oxy-Hb (40 μM). (C) Investigation of the effects of Dp4e4mT and its Fe(III), Co(III), Ni(II), Cu(II), Zn(II), Ga(III), or Pd(II) complexes relative to the positive controls DFO, Dp44mT, DpC, and their Fe(III) complexes (10 μM) on oxy-Hb oxidation in intact human erythrocytes after a 3 h/37 °C incubation. Results are mean ± SD (3 experiments).
Physiologically, oxy-Hb is found in erythrocytes, and in the current investigation, the ligands and complexes (10 μM) were incubated with intact human erythrocytes for 3 h/37 °C to assess their effects on oxy-Hb oxidation (Fig. 7C). As expected from our previous studies,[28,39] […]
In experiments examining the activity of the agents, all complexes were dissolved in 1,2-propanediol, then diluted to 10 µM in PBS (pH 7.2). […]
1800; Shimadzu, Kyoto, Japan). Concentrations of met-Mb and met-Hb, as well as reduced-Mb and reduced-Hb, were determined at 409 nm and 435 nm, respectively. Concentrations of oxy-Mb and oxy-Hb were determined at 544 nm and 582 nm, respectively. 17 Oxidation of Oxy-Hb in Human Erythrocytes
Oxidation of oxy-Hb in human erythrocytes was performed by standard methods using fresh blood from healthy donors after collection in Vacutainer® collection tubes (BD, Plymouth, UK).8 Erythrocytes centrifuged (480 xg/5 min/4°C) and then washed in HBSS, and subsequently resuspended in this buffer. Incubation of the erythrocytes (15% hematocrit) in the absence or presence of the agents (10 μM) was performed for 3 h/37°C. The erythrocytes were […]

In the next series the test system is H2DCF. Briefly: Redox activity: H2DCF oxidation to DCF (cell-free, L-cysteine/H2O2). The format is biochemical. To be noted: 10 μM, pH 7.4 and pH 5, no added CuCl2. Here is the method:
Redox activity in cells was examined using an established in vitro method examining 2′,7′-dichlorodihydrofluorescein (H2DCF) oxidation to fluorescent 2′,7′-dichlorofluorescein (DCF) at cytosolic pH (pH 7.4 using HBSS buffer) relative to lysosomal pH (pH 5; acetate buffer; Fig. 5).[25,26,28,42,46] To these buffers containing the complexes, L-cysteine (100 μM) was added as a reducing agent, followed by H2DCF (5 μM). Then, hydrogen peroxide (H2O2; 100 μM) was added to initiate hydroxyl radical generation. Both [Cu(DpC)Cl2] and [Cu(DpC)2] were used as positive controls due to their documented redox activity.[28,42] In contrast, the ligand, DpC, was implemented as a negative control, as it is redox inert.[28,42] As an additional control, the established Cu chelator, tetrathiomolybdate (TM), was utilized to remove Cu from the thiosemicarbazone complexes to indicate its role in their redox activity.[27,28,42] Additionally, UV-vis spectroscopy (300–700 nm) of the same solution for each complex was also performed to understand both the oxidation of H2DCF and the formation of fluorescent DCF upon excitation at 503 nm (Fig. S20A–F and S21A–F ^†). […]
ROS Generation Analysis with H 2DCF-DA
The generation of reactive oxygen species (ROS) was assessed by examining the oxidation of H2DCF.2, 8, 13, 14 Solutions containing CuCl2, TM, DpC, Dp4e4mT, [Fe(DpC)2]+, [Cu(DpC)Cl2], [Cu(DpC)2] and the Dp4e4mT complexes were prepared at a concentration of 10 µM in either HBSS (pH 7.4) or 150 mM acetate buffer (pH 5) to simulate the conditions of the cytosol and lysosome, respectively.2, 8, 14, 15 The H2DCF was prepared by deacetylation of DCFH-DA (Sigma-Aldrich) through alkaline hydrolysis using NaOH. 16
In these prepared solutions, L-cysteine (100 µM) was added as a reducing agent and then H2DCF (5 µM) added. The initiation of hydroxyl radical generation was achieved by the addition of hydrogen peroxide (H2O2; 100 µM). As a comparative benchmark, HBSS or acetate buffer containing L-cysteine, H2DCF, and H2O2, but lacking ligands or metal complexes, was employed as a control. Fluorescence measurements were carried out using a CLARIOstar Plus microplate reader (BMG LABTECH, Australia) with an excitation wavelength of 485 nm and an emission wavelength of 530 nm. 8, 14

T2 sequence (P69905 2-142 limits assumed): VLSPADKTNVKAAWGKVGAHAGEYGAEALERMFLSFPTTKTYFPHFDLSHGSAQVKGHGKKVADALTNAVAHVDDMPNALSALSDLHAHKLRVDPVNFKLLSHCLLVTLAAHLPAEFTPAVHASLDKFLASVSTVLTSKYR
T2 sequence (P68871 2-147 limits assumed): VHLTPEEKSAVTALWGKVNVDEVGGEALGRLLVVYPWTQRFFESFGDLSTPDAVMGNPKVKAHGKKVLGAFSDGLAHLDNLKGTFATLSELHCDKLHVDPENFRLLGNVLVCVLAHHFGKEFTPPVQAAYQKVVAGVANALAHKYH

Turning to `CN(C)C([S-])=NN=C(c1ccccn1)c1ccccn1.CN(C)C([S-])=NN=C(c1ccccn1)c1ccccn1.[Fe+3]` [[Fe(Dp44mT)2]^+, reference compound], in series [1], the “Redox potential (mV vs. NHE)” value is “+166 mV vs. NHE”. Besides, the “oxy-Mb oxidation (met-Mb generation)” value at oxy-Mb is 222 % of the control. Further, in series [2] (control 0.5%), the “oxy-Hb oxidation to met-Hb in erythrocytes” value is 34.4 % of the total.
As for `CN(C(=S)NN=C(c1ccccn1)c1ccccn1)C1CCCCC1.[Cl-].[Cl-].[Cu+2]` [[Cu(DpC)Cl2], reference compound], the “DCF fluorescence (H2DCF oxidation) of agent alone” value in the series on H2DCF is reported as “significantly (p < 0.0001–0.01) increased DCF fluorescence; also recorded: greatest efficacy at increasing DCF fluorescence”.
Still for that read-out and setting: the value for `[Cl][Cu][Cl]` [CuCl2, reference compound] was “significantly (p < 0.0001–0.01) increased DCF fluorescence”.
Consider `CN(C([S-])=NN=C(c1ccccn1)c1ccccn1)C1CCCCC1.CN(C([S-])=NN=C(c1ccccn1)c1ccccn1)C1CCCCC1.[Fe+3]` [[Fe(DpC)2]^+, reference compound], for which the “Redox potential (mV vs. NHE)” value in series [1] was “+149 mV vs. NHE”. The “oxy-Mb oxidation (met-Mb generation)” value on oxy-Mb is recorded as 161 % of the control. Further, in series [2], the “oxy-Hb oxidation in erythrocytes versus the control (in words)” value was “did not induce any significant (p > 0.05) increase in oxy-Hb oxidation”.
For the compound `[SH-].[SH-].[S]=[Mo]=[S]` [TM, tetrathiomolybdate, reference compound], the “DCF fluorescence (H2DCF oxidation) of agent alone” value in the series on H2DCF is “did not significantly (p > 0.05) increase DCF fluorescence”.
For `CC(=O)N([O-])CCCCCNC(=O)CCC(=O)N([O-])CCCCCNC(=O)CCC(=O)N([O-])CCCCCN.[Fe+3]` [DFO Fe(III) complex, reference compound], in series [2], the “oxy-Hb oxidation in erythrocytes versus the control (in words)” value is reported as “did not induce any significant (p > 0.05) increase in oxy-Hb oxidation”.
